Reference: article PMC12550136, “Functional and structural characterization of F1 ‐ATPase with common ancestral core domains in stator ring” (Protein Science : A Publication of the Protein Society, 2025)

System: T1, F1 ^anc_core
T1 construct: gene atpD; alpha: TF1 residues 1-94 + alpha^anc NBD/CTD; beta: TF1 residues 1-78 + beta^anc NBD/CTD; N-terminal His-tags; alpha3beta3gamma; expressed in E. coli JM103 delta-unc; with ATP synthase gamma chain
Assay: single-molecule rotation assay, […] nm gold colloid, Michaelis-Menten fit
Format: biochemical, synthetic construct
Settings: 50 mM Hepes-KOH pH 7.5, 100 mM KCl

Structure (SMILES) | Km (5 mM MgCl2, ATP-regenerating system, room temperature) [nM] | Km (5 mM MgCl2, room temperature) [nM]
Nc1ncnc2c1ncn2[C@@H]1O[C@H](COP(=O)(O)OP(=O)(O)OP(=O)(O)O)[C@@H](O)[C@H]1O [ATP] | 2600 | –
Nc1ncnc2c1ncn2[C@@H]1O[C@H](COP(=O)(O)OP(=O)(O)OP(O)(O)=S)[C@@H](O)[C@H]1O [ATPγS] | – | 680
